Assay results taken from the supplement of paper PMC10307832.

Legend:
Assay in all cases: relative viability (nuclei count vs DMSO), 5 days (fraction); higher = more cells survive
Obatoclax + Tozasertib = compound: COC1=CC(c2cc3ccccc3[nH]2)=N/C1=C\c1[nH]c(C)cc1C [Obatoclax] + Cc1cc(Nc2cc(N3CCN(C)CC3)nc(Sc3ccc(NC(=O)C4CC4)cc3)n2)n[nH]1 [Tozasertib] (partner 0.1 µM)
Method in brief: (§1)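 Medians of duplicate plates are given as relative viability. That measure is the nuclei count in treated wells divided by the count in vehicle wells. Counts were taken on 4× images of lung cancer cell lines in 1536-well plates, 5 days after pin-tool dosing the day after seeding with one drug alone or a fixed anchor-drug dose plus five library-drug doses (not always all listed) in √10 steps.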

Obatoclax + Pemetrexed = compound: COC1=CC(c2cc3ccccc3[nH]2)=N/C1=C\c1[nH]c(C)cc1C [Obatoclax] + Nc1nc2[nH]cc(CCc3ccc(C(=O)N[C@@H](CCC(=O)O)C(=O)O)cc3)c2c(=O)[nH]1 [Pemetrexed] (partner 0.2 µM)
Method in brief: as §1

[1] = compound: CC1=CC(=NN1)NC2=CC(=NC(=N2)/C=C/C3=CC=CC=C3)N4CCN(CC4)C + COc1cccc2cc(-c3nc([C@H]4CC[C@H](C(=O)O)CC4)n4ncnc(N)c34)[nH]c12 [OSI-027] (partner 0.5 µM)
Method in brief: as §1

Obatoclax + OSI-027 = compound: COC1=CC(c2cc3ccccc3[nH]2)=N/C1=C\c1[nH]c(C)cc1C [Obatoclax] + COc1cccc2cc(-c3nc([C@H]4CC[C@H](C(=O)O)CC4)n4ncnc(N)c34)[nH]c12 [OSI-027] (partner 0.5 µM)
Method in brief: as §1

Row | Cell Line | relative viability (Obatoclax + Tozasertib; first compound 0.01 µM) | relative viability (Obatoclax + Tozasertib; first compound 0.03162 µM) | relative viability (Obatoclax + Tozasertib; first compound 0.1 µM) | relative viability (Obatoclax + Tozasertib; first compound 0.3162 µM) | relative viability (Obatoclax + Tozasertib; first compound 1 µM) | relative viability (Obatoclax + Pemetrexed; first compound 0.01 µM) | relative viability (Obatoclax + Pemetrexed; first compound 0.03162 µM) | relative viability (Obatoclax + Pemetrexed; first compound 0.1 µM) | relative viability (Obatoclax + Pemetrexed; first compound 0.3162 µM) | relative viability (Obatoclax + Pemetrexed; first compound 1 µM) | relative viability ([1]; first compound 0.08 µM) | relative viability ([1]; first compound 0.253 µM) | relative viability ([1]; first compound 0.8 µM) | relative viability ([1]; first compound 2.53 µM) | relative viability ([1]; first compound 8 µM) | relative viability (Obatoclax + OSI-027; first compound 0.01 µM) | relative viability (Obatoclax + OSI-027; first compound 0.03162 µM) | relative viability (Obatoclax + OSI-027; first compound 0.1 µM) | relative viability (Obatoclax + OSI-027; first compound 0.3162 µM) | relative viability (Obatoclax + OSI-027; first compound 1 µM)
1 | PC-3 [JPC-3] | 0.913 | 0.85 | 0.87 | 0.81 | 0.859 | 1.07 | 0.933 | 0.925 | 0.645 | 0.476 | 0.766 | 0.683 | 0.83 | 0.67 | 0.59 | 0.808 | 0.728 | 0.791 | 0.731 | 0.752
2 | HCC-44 | 0.907 | 1.03 | 0.556 | 0.376 | 0.196 | 0.64 | 0.648 | 0.589 | 0.627 | 0.652 | 0.615 | 0.49 | 0.633 | 0.292 | 0.144 | 0.577 | 0.422 | 0.219 | 0.441 | 0.333
3 | NCI-H2405 | 0.789 | 0.905 | – | 0.833 | 0.882 | 1.11 | 1.01 | – | 1.07 | 0.927 | 0.619 | 0.571 | 0.651 | 0.373 | 0.209 | 0.65 | 0.688 | – | 0.643 | 0.727
4 | LXF-289 | 0.192 | 0.216 | 0.215 | 0.168 | 0.131 | 0.847 | 0.907 | 0.835 | 0.94 | 0.854 | 0.826 | 0.834 | 0.673 | 0.42 | 0.0972 | 0.78 | 0.77 | 0.68 | 0.765 | 0.691
5 | LOU-NH91 | 0.658 | 0.655 | 0.513 | 0.598 | 0.489 | 0.334 | 0.382 | 0.323 | 0.379 | 0.47 | 0.767 | 0.842 | 0.742 | 0.699 | 0.507 | 0.727 | 0.719 | 0.566 | 0.714 | 0.683
6 | H3255 | 0.6 | 0.796 | 0.513 | 0.638 | 0.73 | 0.54 | 0.51 | 0.498 | 0.471 | 0.597 | 0.582 | 0.541 | 0.579 | 0.589 | 0.382 | 0.584 | 0.591 | 0.751 | 0.617 | 0.666
7 | NCI-H1395 | 0.674 | 0.609 | 0.64 | 0.769 | 0.547 | 0.84 | 0.781 | 0.827 | 0.711 | 0.657 | 0.56 | 0.621 | 0.625 | 0.387 | 0.26 | 0.659 | 0.539 | 0.473 | 0.557 | 0.465
8 | LC-2-ad | 0.465 | 0.422 | 0.44 | 0.387 | 0.355 | 0.268 | 0.285 | 0.261 | 0.264 | 0.285 | 0.808 | 0.867 | 0.753 | 0.336 | 0.184 | 0.838 | 0.838 | 0.529 | 0.724 | 0.655
9 | NCI-H838 | 0.292 | 0.253 | 0.292 | 0.25 | 0.221 | 0.237 | 0.247 | 0.233 | 0.223 | 0.198 | 0.346 | 0.413 | 0.385 | 0.208 | 0.103 | 0.498 | 0.367 | 0.46 | 0.385 | 0.284
10 | SW 900 | 0.67 | 0.571 | 0.499 | 0.33 | 0.281 | 0.494 | 0.303 | 0.527 | 0.48 | 0.446 | 0.493 | 0.58 | 0.489 | 0.259 | 0.0615 | 0.54 | 0.512 | 0.709 | 0.383 | 0.258
11 | LCLC-97TM1 | 0.268 | 0.255 | 0.232 | 0.215 | 0.21 | 0.171 | 0.188 | 0.18 | 0.178 | 0.161 | 0.427 | 0.335 | 0.564 | 0.192 | 0.2 | 0.606 | 0.553 | 0.693 | 0.347 | 0.52
12 | HCC-15 | 0.371 | 0.35 | 0.463 | 0.456 | 0.287 | 0.215 | 0.234 | 0.215 | 0.225 | 0.228 | 0.665 | 0.642 | 0.549 | 0.158 | 0.0878 | 0.745 | 0.641 | 0.446 | 0.662 | 0.447
13 | CAL-12T | 0.389 | 0.326 | 0.36 | 0.153 | 0.0881 | 1.04 | 1.16 | 1.13 | 0.896 | 0.149 | 0.666 | 0.651 | 0.447 | 0.14 | 0.12 | 0.62 | 0.609 | 0.829 | 0.138 | 0.128
14 | NCI-H727 | 0.581 | 0.58 | 0.755 | 0.509 | 0.707 | – | – | – | – | – | 0.608 | 0.485 | 0.678 | 0.398 | 0.278 | 0.776 | 0.554 | 0.857 | 0.61 | 0.453
15 | ABC-1 | 0.181 | 0.17 | 0.177 | 0.209 | 0.223 | – | – | – | – | – | 0.453 | 0.54 | 0.644 | 0.179 | 0.143 | 0.576 | 0.571 | 0.424 | 0.373 | 0.276
16 | NCI-H2023 | 0.365 | 0.354 | 0.297 | 0.145 | 0.151 | 0.3 | 0.217 | 0.24 | 0.188 | 0.134 | 0.374 | 0.45 | 0.341 | 0.0653 | 0.041 | 0.42 | 0.381 | 0.488 | 0.226 | 0.102
17 | NCI-H358 | 0.105 | 0.117 | 0.0958 | 0.0729 | 0.065 | 0.159 | 0.185 | 0.166 | 0.192 | 0.14 | 0.769 | 0.933 | 0.483 | 0.0714 | 0.0592 | 0.736 | 0.871 | 0.903 | 0.379 | 0.199
18 | SW 1573 | 0.222 | 0.208 | 0.145 | 0.143 | 0.129 | 0.824 | 0.938 | 0.887 | 0.427 | 0.196 | 0.549 | 0.511 | 0.569 | 0.0922 | 0.0676 | 0.612 | 0.559 | 0.662 | 0.219 | 0.115
19 | NCI-H1993 | 0.594 | 0.637 | 0.618 | 0.604 | 0.624 | 0.593 | 0.544 | 0.727 | 0.545 | 0.346 | 0.514 | 0.484 | 0.478 | 0.457 | 0.414 | 0.501 | 0.551 | 0.623 | 0.526 | 0.528
20 | NCI-H661 | 0.365 | 0.336 | 0.393 | 0.355 | 0.357 | 0.883 | 0.975 | 0.933 | 0.874 | 0.848 | 0.774 | – | 0.599 | 0.39 | 0.217 | 0.689 | 0.704 | 0.709 | 0.649 | 0.407
21 | UMC-11 | 0.202 | 0.197 | 0.234 | 0.249 | 0.22 | 0.768 | 0.808 | 0.82 | 0.795 | 0.433 | 0.494 | 0.458 | 0.339 | 0.141 | 0.133 | 0.465 | 0.504 | 0.48 | 0.379 | 0.285
22 | NCI-H520 | 0.42 | 0.434 | 0.492 | 0.402 | 0.295 | 0.657 | 0.714 | 0.656 | 0.643 | 0.249 | 0.289 | 0.286 | 0.214 | 0.165 | 0.128 | 0.256 | 0.284 | 0.406 | 0.251 | 0.243
23 | ChaGo-K-1 | 0.247 | 0.24 | 0.243 | 0.24 | 0.235 | 0.243 | 0.252 | 0.261 | 0.265 | 0.274 | 0.566 | 0.548 | 0.528 | 0.191 | 0.131 | 0.694 | 0.549 | 0.522 | 0.512 | 0.63
24 | NCI-H2085 | 0.751 | 0.826 | 0.895 | 0.776 | 0.645 | 0.886 | 1 | 0.705 | 0.709 | 0.298 | 0.728 | 0.755 | 0.758 | 0.334 | 0.193 | 0.818 | 0.917 | 0.587 | 0.506 | 0.359
25 | NCI-H1651 | 0.796 | 0.752 | 0.737 | 0.552 | 0.468 | 0.591 | 0.439 | 0.528 | 0.373 | 0.603 | 0.613 | 0.749 | 0.63 | 0.293 | 0.133 | 0.628 | 0.712 | 0.804 | 0.428 | 0.252
26 | NCI-H1563 | – | – | – | – | – | 0.803 | 0.713 | 0.583 | 0.727 | 0.896 | 0.776 | 0.813 | 0.722 | 0.65 | 0.431 | 0.741 | 0.797 | 0.87 | 0.705 | 0.619
27 | NCI-H1623 | 0.428 | 0.422 | 0.426 | 0.451 | 0.38 | – | – | – | – | – | 0.412 | 0.41 | 0.411 | 0.377 | 0.282 | 0.429 | 0.434 | 0.47 | 0.389 | 0.471
28 | NCI-H1792 | – | – | – | – | – | 0.909 | 0.58 | 0.459 | 0.799 | 0.386 | 0.678 | 0.777 | 0.673 | 0.519 | 0.206 | 0.793 | 0.716 | – | 0.624 | 0.932
